Measurements reported in patent US8431564B2 (Merck Sharp & Dohme B.V., priority 2009, dated 2013).

Each compound was assayed against T1, human FSH receptor (Homo sapiens, UniProt P23945) (assay: Agonistic activity at the human FSH receptor expressed in CHO cells (CRE-luciferase reporter)). Conditions: CHO cells stably transfected with human FSH receptor and CRE/luciferase reporter; 4 hours incubation; pEC50 is -log EC50; read-out: hFSHRago (CHO luc) pEC50 (converted).
T1 construct: expressed in transfected cells; host or cells: CHO (Chinese Hamster Ovary) cells, stably transfected, cotransfected with CRE-luciferase reporter
T1 sequence (P23945 18-695): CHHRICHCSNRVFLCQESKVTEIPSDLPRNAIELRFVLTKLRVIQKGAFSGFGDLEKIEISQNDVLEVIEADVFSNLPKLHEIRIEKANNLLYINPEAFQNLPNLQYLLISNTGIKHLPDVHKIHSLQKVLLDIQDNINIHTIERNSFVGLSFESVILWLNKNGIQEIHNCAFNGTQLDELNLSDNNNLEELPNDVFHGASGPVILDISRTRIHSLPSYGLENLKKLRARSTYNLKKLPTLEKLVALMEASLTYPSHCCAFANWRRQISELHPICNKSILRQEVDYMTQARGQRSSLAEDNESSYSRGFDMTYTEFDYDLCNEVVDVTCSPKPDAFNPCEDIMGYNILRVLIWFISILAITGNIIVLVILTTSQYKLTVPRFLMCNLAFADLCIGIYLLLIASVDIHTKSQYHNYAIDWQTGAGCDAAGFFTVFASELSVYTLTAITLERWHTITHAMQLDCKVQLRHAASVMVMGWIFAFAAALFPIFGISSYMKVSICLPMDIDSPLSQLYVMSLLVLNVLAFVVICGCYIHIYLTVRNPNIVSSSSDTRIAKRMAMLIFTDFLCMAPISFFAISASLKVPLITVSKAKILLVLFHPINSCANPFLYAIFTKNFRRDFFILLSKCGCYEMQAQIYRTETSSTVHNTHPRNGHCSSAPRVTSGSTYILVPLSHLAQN
Type: cell-based
Excerpt: The term EC50 means the concentration of the test compound that elicits half-maximal (50%) stimulation compared to the compound's maximally attainable effect. pEC50 is the negative log of EC50. The values can be determined e.g. in a cell line transfected with a FSH receptor gene and cotransfected with a cAMP responsive element/promoter directing the expression of a reporter gene. For the determination a software program such as MathIQ (version 2.0, ID Business Solutions Limited) can be used.
Agonistic activity of the compounds at the human FSH receptor was determined in Chinese Hamster Ovary (CHO) cells stably transfected with the human FSH receptor and cotransfected with a cAMP responsive element (CRE)/promotor directing the expression of a firefly luciferase reporter gene. Binding of the compounds to the Gs protein-coupled FSH receptor will result in an increase of cAMP, which in turn will induce an increased transactivation of the luciferase reporter. Cells (7,500 cells/well of a 384 well plate) were incubated in Dulbecco' minimal essential F12 modified medium (Invitrogen), supplemented with 1 μg/ml bovine insulin, 5 μg/ml human apo-transferrin, 80 U/ml penicillin G and 80 μg/ml streptomycin with the test compounds (concentration between 0.0316 nM and 10.0 μM) in duplicate in a humidified atmosphere (95%) at 5-7% CO2 and 37° C. The final concentration of DMSO was 1%. After 4 hours of incubation, plates were allowed to adjust to room temperature for 1 hour. Then, Luclite (PerkinElmer) solution was added to the wells and cells were allowed to lyse for at least 1 hour at room temperature. Subsequently, luciferase activity was measured in a luminescence counter. The signal is expressed as counts per second (cps). The EC50 (concentration of the test compound that elicits half-maximal (50%) luciferase stimulation compared to the compound's maximally attainable effect) and efficacy values (maximal effect of the test compound as percentage of the maximal effect of recombinant human FSH) of the compounds were determined using the software program MathIQ (version 2.0, ID Business Solutions Limited). pEC50 data (pEC50 is −log EC50) are indicated at the synthesis examples.

| SMILES | EC50 [µM] |
| --- | --- |
| COc1cc2c(cc1-c1cccc(F)n1)-c1c(-c3cncs3)c3c(n1CC2)C(=O)N(C(C)(C)C)CCOC3 [Compound 11k, 9-tert-butyl-2-(6-fluoropyridin-2-yl)-3-methoxy-14-(1,3-thiazol-5-yl)-5,6,10,11-tetrahydro-9H-[1,4]oxazocino[7′,6′:4,5]pyrrolo[2,1-a]isoquinolin-8(13H)-one] | 0.0138 |
| COc1cc2c(cc1-c1cncs1)-c1c(-c3cncs3)c3c(n1CC2)C(=O)N(C(C)(C)C)CCOC3 [Compound 11l, 9-tert-butyl-3-methoxy-2,14-di-1,3-thiazol-5-yl-5,6,10,11-tetrahydro-9H-[1,4]oxazocino[7′,6′:4,5]pyrrolo[2,1-a]isoquinolin-8(13H)-one] | 0.0126 |
| COc1cc2c(cc1-c1cccnc1)-c1c(-c3cccs3)c3c(n1CC2)C(=O)N(C)C(C)(C)CC3 [Compound 12l, 9-methyl-2-pyidin3-yl-3-methoxy-10,10-dimethyl-13-(2-thienyl)-5,6,9,10,11,12-hexahydro-8H-azepino[4′,3′:4,5]pyrrolo[2,1-a]isoquinolin-8-one] | 0.012 |
| COc1cc2c(cc1-c1cccnc1)-c1c(Br)c3c(n1CC2)C(=O)N(C(C)(C)C)CCC3 [Compound 13d, 9-tert-butyl-2-pyridin-3-yl-13-bromo-3-methoxy-5,6,9,10,11,12-hexahydro-8H-azepino[4′,3′:4,5]pyrrolo[2,1-a]isoquinolin-8-one] | 0.38 |
| COc1cc2c(cc1-c1cccnc1)-c1c(-c3cccnc3)c3c(n1CC2)C(=O)N(C(C)(C)C)CCC3 [Compound 13e, 9-tert-butyl-2,13-di-(pyridin3-yl)-3-methoxy-5,6,9,10,11,12-hexahydro-8H-azepino[4′,3′:4,5]pyrrolo[2,1-a]isoquinolin-8-one] | 0.0427 |
| COc1cc2c(cc1-c1cccnc1)-c1c(-c3ncco3)c3c(n1CC2)C(=O)N(C(C)(C)C)CCC3 [Compound 13f] | 0.0158 |
| COc1cc2c(cc1OC(C)C)-c1c(-c3cccs3)c3c(n1CC2)C(=O)N(C(C)C)CCNC3 [Compound 14e, 9-isopropyl-3-methoxy-2-isopropoxy-14-(2-thienyl)-5,6,10,11,12,13-hexahydro[1,4]diazocino[6′,7′:4,5]pyrrolo[2,1-a]isoquinolin-8(9H)-one] | 0.0933 |
| COc1cc2c(cc1OC(C)C)-c1c(-c3cccs3)c3c(n1CC2)C(=O)N(C(C)C)CCN(C(C)=O)C3 [Compound 14f, 12-acetyl-9-isopropyl-3-methoxy-2-isopropoxy-14-(2-thienyl)-5,6,10,11,12,13-hexahydro[1,4]diazocino[6′,7′:4,5]pyrrolo[2,1-a]isoquinolin-8(9H)-one] | 0.0355 |
| CCC(=O)N1CCN(C(C)C)C(=O)c2c(c(-c3cccs3)c3n2CCc2cc(OC)c(OC(C)C)cc2-3)C1 [Compound 14g, 12-propanoyl-9-isopropyl-3-methoxy-2-isopropoxy-14-(2-thienyl)-5,6,10,11,12,13-hexahydro[1,4]diazocino[6′,7′:4,5]pyrrolo[2,1-a]isoquinolin-8(9H)-one] | 0.219 |
| COc1cc2c(cc1OC(C)C)-c1c(-c3cccs3)c3c(n1CC2)C(=O)N(C(C)(C)C)C3 [Compound 15f, 9-tert-butyl-2-isopropoxy-3-methoxy-11-(2-thienyl)-5,6,9,10-tetrahydro-8H-pyrrolo[3′,4′:4,5]pyrrolo[2,1-a]isoquinolin-8-one] | 0.617 |
| COc1cc2c(cc1-c1cccnc1)-c1c(-c3cncs3)c3c(n1CC2)C(=O)N(C(C)(C)C)CCCCC3 [Compound 16n, 2-pyridin-3-yl-9-tert-butyl-3-methoxy-15-(1,3-thiazol-5-yl)-5,6,9,10,11,12,13,14-octahydro-8H-azonino[4′,3′:4,5]pyrrolo[2,1-a]isoquinolin-8-one] | 0.0162 |
| COc1cc2c(cc1-c1cccnc1)-c1c(-c3cscn3)c3c(n1CC2)C(=O)N(C(C)(C)C)CCCCC3 [Compound 16t, 2-pyridin-3-yl-9-tert-butyl-3-methoxy-15-(1,3-thiazol-4-yl)-5,6,9,10,11,12,13,14-octahydro-8H-azonino[4′,3′:4,5]pyrrolo[2,1-a]isoquinolin-8-one] | 0.0295 |
| COc1cc2c(cc1Br)-c1c(-c3cncs3)c3c(n1CC2)C(=O)N(C(C)(C)C)CCCC3 [Compound 17i, 9-tert-butyl-3-methoxy-2-bromo-14-(1,3-thiazol-5-yl)-5,6,10,11,12,13-hexahydroazocino[4′,3′:4,5]pyrrolo[2,1-a]isoquinolin-8(9H)-one] | 0.00468 |
| COc1cc2c(cc1-c1ncco1)-c1c(-c3cncs3)c3c(n1CC2)C(=O)N(C(C)(C)C)CCCC3 [Compound 17j, 9-tert-butyl-3-methoxy-2-(1,3-oxazol-2-yl)-14-(1,3-thiazol-5-yl)-5,6,10,11,12,13-hexahydroazocino[4′,3′:4,5]pyrrolo[2,1-a]isoquinolin-8(9H)-one] | 0.000977 |
| COc1cc2c(cc1-c1cccnc1)-c1c(-c3cncs3)c3c(n1CC2)C(=O)N(C(C)(C)C)CCCC3 [Compound 17k, 9-tert-butyl-3-methoxy-2-pyridin-3-yl-14-(1,3-thiazol-5-yl)-5,6,10,11,12,13-hexahydroazocino[4′,3′:4,5]pyrrolo[2,1-a]isoquinolin-8(9H)-one] | 0.000355 |

More lines, now with the values ahead:

| EC50 [µM] | SMILES |
| --- | --- |
| 0.126 | COc1cc2c(cc1OC(C)C)-c1c(Br)c3c(n1CC2)C(=O)N(C(C)(C)C)CCOC3 [Compound 18d, 9-tert-butyl-3-methoxy-2-isopropoxy-14-bromo-5,6,10,11-tetrahydro-9H-[1,4]oxazocino[7′,6′:4,5]pyrrolo[2,1-a]isoquinolin-8(13H)-one] |
| 0.0631 | COc1cc2c(cc1OC(C)C)-c1c(-c3cccnc3)c3c(n1CC2)C(=O)N(C(C)(C)C)CCOC3 [Compound 18e, 9-tert-butyl-3-methoxy-2-isopropoxy-14-pyridin-3-yl-5,6,10,11-tetrahydro-9H-[1,4]oxazocino[7′,6′:4,5]pyrrolo[2,1-a]isoquinolin-8(13H)-one] |
| 0.0479 | COc1cc2c(cc1OC(C)C)-c1c(-c3ccncc3)c3c(n1CC2)C(=O)N(C(C)(C)C)CCOC3 [Compound 18f, 9-tert-butyl-3-methoxy-2-isopropoxy-14-pyridin-4-yl-5,6,10,11-tetrahydro-9H-[1,4]oxazocino[7′,6′:4,5]pyrrolo[2,1-a]isoquinolin-8(13H)-one] |
| 0.02 | COc1cc2c(cc1OC(C)C)-c1c(-c3ccc(F)cc3)c3c(n1CC2)C(=O)N(C(C)(C)C)CCOC3 [Compound 18g] |
| 0.0123 | COc1cc2c(cc1-c1cccnc1)-c1c(Cl)c3c(n1CC2)C(=O)N(C(C)(C)C)CCCC3 [Compound 19f, 9-tert-butyl-3-methoxy-2-pyridin-3-yl-14-chloro-5,6,10,11,12,13-hexahydroazocino[4′,3′:4,5]pyrrolo[2,1-a]isoquinolin-8(9H)-one] |
| 0.0398 | COc1cc2c(cc1N)-c1c(-c3cccs3)c3c(n1CC2)C(=O)N(C(C)(C)C)CCCC3 [Compound 20b, 9-tert-butyl-14-(thien-2-yl)-2-amino-3-methoxy-5,6,10,11,12,13-hexahydroazocino[4′,3′:4,5]pyrrolo[2,1-a]isoquinolin-8(9H)-one] |
| 0.000589 | COc1cc2c(cc1-n1cc(CCO)nn1)-c1c(-c3cccs3)c3c(n1CC2)C(=O)N(C(C)(C)C)CCCC3 [Compound 20d, 9-tert-butyl-14-(thien-2-yl)-2-(4-(2-hydroxyethyl)-1H-1,2,3-triazol-1-yl)-3-methoxy-5,6,10,11,12,13-hexahydroazocino[4′,3′:4,5]pyrrolo[2,1-a]isoquinolin-8(9H)-one] |
